Like-named read-outs stand apart in the source and are kept apart here.
Legend:
HCV = conditions: combination therapy, HCV infected patients; cited from earlier work
[1] = system: HCV genotype 1b (Con1) replicon in HUH-7 cells; assay: HCV replicon luciferase reporter assay, genotype 1b; format: cell-based; conditions: Hepatitis C virus, Huh-7, 72 h, 3 days incubation, read-out: LE_1b (EC50, range)
In short: (§1)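 Replicon inhibition for both genotypes was measured as Renilla luciferase signal (EnduRen, 7.5 μM final, 2 h) after 3-day, 37° C exposure of replicon-bearing HUH-7 cells in 4% FCS DMEM, 0.5% DMSO. The 1b construct carries S1179I; the 1a H77 construct carries P1496L and S2204I. Twenty-point, 3-fold dilutions were fitted four-parametrically for EC50, and CC50 was taken from multiplexed Cell Titer-Blue.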

[2] = system: HCV genotype 1a (H77 strain) replicon in HUH-7 cells; assay: HCV replicon luciferase reporter assay, genotype 1a; format: cell-based; conditions: Hepatitis C virus, Huh-7, 72 h, 3 days incubation, read-out: LE_1a (EC50, range)
In short: as §1

[3] = HCV genotype 1b replicon luciferase
[4] = HCV genotype 1a replicon luciferase

| Compound | EC50 [1, 3] [nM] | EC50 [2, 4] [nM] | further results |
| --- | --- | --- | --- |
| alpha-interferon and ribavirin |  |  | sustained efficacy (HCV): 40 % of patients |
| COc1ccc2c(O[C@@H]3C[C@H]4C(=O)N[C@]5(C(=O)NS(=O)(=O)C6(C)CC6)C[C@H]5/C=C\CC[C@@H](C)C[C@@H](C)[C@H](NC(=O)OC5C[C@@H]6C[C@@H]6C5)C(=O)N4C3)nc(-c3ccc(OC(C)C)nc3)cc2c1 (stereo partly drawn) [Compound 5229, (1R,3r,5S)-bicyclo[3.1.0]hexan-3-yl((2R,6S,7R,9R,13aS,14aR,16aS,Z)-2-((3-(6-isopropoxypyridin-3-yl)-6-methoxyisoquinolin-1-yl)oxy)-7,9-dimethyl-14a-(((1-methylcyclopropyl)sulfonyl)carbamoyl)-5,16-dioxo-1,2,3,5,6,7,8,9,10,11,13a,14,14a,15,16,16a-hexadecahydrocyclopropa[e]pyrrolo[1,2-a][1,4]diazacyclopentadecin-6-yl)carbamate] | < 5.46 | < 5.46 |  |
| COc1ccc2c(O[C@@H]3C[C@H]4C(=O)N[C@]5(C(=O)NS(=O)(=O)C6CC6)C[C@H]5/C=C\CC[C@@H](C)C[C@@H](C)[C@H](NC(=O)OC(C)(C)C(F)(F)F)C(=O)N4C3)nc(-c3ccc(OC(C)C)cn3)cc2c1 [Compound 5203, 1,1,1-trifluoro-2-methylpropan-2-yl((2R,6S,7R,9R,13aS,14aR,16aS,Z)-14a-((cyclopropylsulfonyl)carbamoyl)-2-((3-(5-isopropoxypyridin-2-yl)-6-methoxyisoquinolin-1-yl)oxy)-7,9-dimethyl-5,16-dioxo-1,2,3,5,6,7,8,9,10,11,13a,14,14a,15,16,16a-hexadecahydrocyclopropa[e]pyrrolo[1,2-a][1,4]diazacyclopentadecin-6-yl)carbamate] | < 5.46 | < 5.46 |  |
| COc1ccc2c(O[C@@H]3C[C@H]4C(=O)N[C@]5(C(=O)NS(=O)(=O)C6CC6)C[C@H]5/C=C\CC[C@H](C)C[C@@H](C)[C@H](NC(=O)OC(C)(C)C(F)(F)F)C(=O)N4C3)nc(-c3ccc(OC(C)C)nc3)cc2c1 [Compound 5214, 1,1,1-trifluoro-2-methylpropan-2-yl((2R,6S,7R,9S,13aS,14aR,16aS,Z)-14a-((cyclopropylsulfonyl)carbamoyl)-2-((3-(6-isopropoxypyridin-3-yl)-6-methoxyisoquinolin-1-yl)oxy)-7,9-dimethyl-5,16-dioxo-1,2,3,5,6,7,8,9,10,11,13a,14,14a,15,16,16a-hexadecahydrocyclopropa[e]pyrrolo[1,2-a][1,4]diazacyclopentadecin-6-yl)carbamate] | < 5.46 | 4.82 to 103 |  |
| CC[C@@H]1C[C@H](C)CC/C=C\[C@@H]2C[C@@]2(C(=O)NS(=O)(=O)C2(CF)CC2)NC(=O)[C@@H]2C[C@@H](Oc3nccc4cc(OC)ccc34)CN2C(=O)[C@H]1NC(=O)OC(C)(C)C(F)(F)F [Compound 4205] |  |  | EC50 ([1]; GETYPE1B, HCV genotype 1b replicon luciferase): < 5.46 nM; EC50 ([2]; GETYPE1A, HCV genotype 1a replicon luciferase): < 5.46 nM |
| CCn1nc(O[C@@H]2C[C@H]3C(=O)N[C@]4(C(=O)NS(=O)(=O)C5(C)CC5)C[C@H]4/C=C\CC[C@@H](C)C[C@@H](C)[C@H](NC(=O)c4ccc(N(C)C)cc4)C(=O)N3C2)c2ccccc2c1=O [Compound 5061, (2R,6S,7R,9R,13aS,14aR,16aS,Z)-6-(4-(dimethylamino)benzamido)-2-((3-ethyl-4-oxo-3,4-dihydrophthalazin-1-yl)oxy)-7,9-dimethyl-N-((1-methylcyclopropyl)sulfonyl)-5,16-dioxo-1,2,3,5,6,7,8,9,10,11,13a,14,14a,15,16,16a-hexadecahydrocyclopropa[e]pyrrolo[1,2-a][1,4]diazacyclopentadecine-14a-carboxamide] | 4.82 to 103 | 4.82 to 103 |  |
| COc1ccc2c(O[C@@H]3C[C@H]4C(=O)N[C@]5(C(=O)NS(=O)(=O)C6(CF)CC6)C[C@H]5/C=C\CC[C@H](C)C[C@@H](C)[C@H](NC(=O)OC(C)(C)C(F)(F)F)C(=O)N4C3)nc(OC)cc2c1 [Compound 1126, 1,1,1-trifluoro-2-methylpropan-2-yl((2R,6S,7R,9S,13aS,14aR,16aS,Z)-2-((3,6-dimethoxyisoquinolin-1-yl)oxy)-14a-(((1-(fluoromethyl)cyclopropyl)sulfonyl)carbamoyl)-7,9-dimethyl-5,16-dioxo-1,2,3,5,6,7,8,9,10,11,13a,14,14a,15,16,16a-hexadecahydrocyclopropa[e]pyrrolo[1,2-a][1,4]diazacyclopentadecin-6-yl)carbamate] |  |  | EC50 ([1]; HCV genotype 1b replicon luciferase assay, range class): < 5.46 nM; EC50 ([2]; HCV genotype 1a replicon luciferase assay, range class): 4.82 to 103 nM |

Reference: US9499550B2 (BRISTOL-MYERS SQUIBB COMPANY, priority 2012, dated 2016)
